pKi: −log10 of the molar value. Like-named read-outs stand apart in the source and are kept apart here.
What was measured:
[1] = biological target: T1, α1A adrenoceptor subtype (rabbit urethra) (Oryctolagus cuniculus, UniProt O02824); assay: Rabbit urethra tissue bath, agonism; settings: for α1A efficacy: percent of phenylephrine (100%) contraction
T1 sequence (O02824 1-466): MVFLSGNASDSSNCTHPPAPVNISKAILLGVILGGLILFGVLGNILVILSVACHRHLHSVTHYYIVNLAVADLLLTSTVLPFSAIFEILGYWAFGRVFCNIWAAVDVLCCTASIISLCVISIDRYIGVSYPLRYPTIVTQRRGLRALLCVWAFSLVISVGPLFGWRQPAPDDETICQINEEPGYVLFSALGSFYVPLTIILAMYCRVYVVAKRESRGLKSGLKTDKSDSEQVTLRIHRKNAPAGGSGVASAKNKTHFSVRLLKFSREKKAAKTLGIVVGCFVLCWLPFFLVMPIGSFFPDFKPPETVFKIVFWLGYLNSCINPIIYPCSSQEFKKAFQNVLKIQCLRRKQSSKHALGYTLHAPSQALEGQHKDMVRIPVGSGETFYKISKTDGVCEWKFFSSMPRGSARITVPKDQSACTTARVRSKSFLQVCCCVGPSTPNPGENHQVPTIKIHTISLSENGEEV
Excerpt: (§1) Quantitative analysis of agonist and antagonist action is the basis of receptor classification and drug design. […] The interaction of an agonist with a receptor may be characterized by two quantities, affinity and efficacy. These quantities can be estimated by generating two concentration response curves and fitting the data to a four parameter curve smoothing routine. The first curve is a reference standard followed by a thorough rinsing and a second curve generated using the test agent. […] Agonist potency (pD2) is expressed as the negative log10 of the EC50. The efficacy is determined by comparing the maximum value of the test agent to the maximum value of the reference agent and expressed as a % of maximum response.
(§2) A cumulative concentration protocol was employed. […] Br. J. Pharmacol. 14, 48-58.
The efficacy of the compounds are compared as a percent of phenylephrine (100%) contraction.

[2] = biological target: T2, α1D adrenoceptor subtype (rat aorta) (Rattus norvegicus, UniProt P23944); assay: Rat aorta tissue bath, agonism; settings: for α1D efficacy: percent of phenylephrine (100%) contraction
T2 sequence (P23944 1-561): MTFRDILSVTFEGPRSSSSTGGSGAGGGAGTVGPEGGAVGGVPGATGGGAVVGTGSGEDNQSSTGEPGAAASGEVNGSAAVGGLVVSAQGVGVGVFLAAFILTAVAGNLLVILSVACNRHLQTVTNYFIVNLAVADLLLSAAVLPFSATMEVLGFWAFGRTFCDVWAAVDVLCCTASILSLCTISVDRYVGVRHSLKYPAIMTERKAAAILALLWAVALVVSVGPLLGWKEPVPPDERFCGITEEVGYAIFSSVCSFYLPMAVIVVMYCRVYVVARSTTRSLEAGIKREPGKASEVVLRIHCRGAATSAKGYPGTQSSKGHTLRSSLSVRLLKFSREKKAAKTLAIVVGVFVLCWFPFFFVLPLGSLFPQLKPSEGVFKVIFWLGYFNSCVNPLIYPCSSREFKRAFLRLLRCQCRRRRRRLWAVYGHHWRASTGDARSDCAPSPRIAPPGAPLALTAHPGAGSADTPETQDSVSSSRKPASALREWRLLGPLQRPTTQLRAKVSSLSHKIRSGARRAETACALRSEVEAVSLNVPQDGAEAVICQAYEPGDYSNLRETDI
Excerpt: as §1, §2

[3] = for IUP ED5 mmHg: dose producing 5 mmHg increase in IUP; for Selectivity ratio MAP ED20/IUP ED5: calculated for each dog and then averaged
Excerpt: Intraurethral Pressure in Dogs (IUP-MAP test)
Female Beagle dogs (Marshall Farms, North Rose, N.Y.) greater that 2 years of age and weighing between 12 and 15 kg were used in these studies. At least 2 weeks prior to any agonist dosing, dogs were instrumented for the chronic measurement of arterial blood pressure by implanting a telemetry transducer/transmitter (TA11PA-C40, Data Sciences International, St. Paul, Minn.) into a carotid artery.
On the test day, dogs fasted since the previous afternoon were pre-anesthetized with thiopental sodium 15 mg/kg i.v. (Pentothal™, Abbott) and intubated. Anesthesia was maintained by allowing the dog to spontaneously breathe a mixture of isoflurane (2.5 to 3 volume %) and oxygen delivered by a Narkomed Standard anesthesia system (North American Drager, Telford, Pa.). An Abbocath-T™ i.v. catheter (18-G, Abbott Laboratories, Abbott Park, Ill.) was inserted into the cephalic vein for the administration of agonists. A telemetry receiver (RA1310, DataSciences) was placed under the head of each dog and was interfaced to a computerized data acquisition system (Modular Instruments Inc.(MI2), Malvern, Pa.) which allowed for the continuous calibrated recording of arterial blood pressure which was electronically filtered to determine its mean value (MAP).
Briefly, a 7 Fr catheter balloon catheter (41224-01, Abbott) was inserted into the urethral orifice and advanced approximately 15 cm until the tip was well inside the bladder. The balloon was then inflated with 1 ml of room air and the catheter slowly withdrawn until resistance (corresponding to the bladder neck) was evident. The balloon was then deflated and the catheter withdrawn an additional 2 cm. The balloon was then reinflated and its catheter port connected to a Gould Statham P23Dd pressure transducer interfaced to a computerized data acquisition system (Modular Instruments, Inc., Malvern, Pa.) for the measurement of intraurethral pressure (IUP). The MAP and IUP pressor responses to increasing iv doses of test agonists were obtained simultaneously. The pressor effects of each dose were allowed to return to baseline before the next dose was given.
The dose required to elicit significant and clinically meaningful changes in IUP (5 mm Hg) relative to the dose required to elicit a physiologically significant increase in blood pressure (20 mm Hg) is calculated.
IUP and MAP pressor effects of each agonist dose were expressed as the maximum net change in each pressure over pre-dose baseline levels. Subsequently, the effective doses required to produce a 5 mmHg increase in IUP (IUP ED5mmHg) and a 20 mmHg increase in MAP (MAP ED20mmHg) were estimated from the dose response data from each dog. Relative urethral versus vascular selectivity of each agonist in each dog was estimated using a ratio of these respective potency indices (MAP ED20mmHg/IUP ED5mmHg).
Data are expressed as means (±S.E.M) and all doses are in nmol/kg, i.v.

[4] = biological target: T3, α1B adrenoceptor subtype (rat spleen) (Rattus norvegicus, UniProt P15823); assay: Rat spleen tissue bath, agonism; design: The spleen was split longitudinally into two preparations per rat; from tissue; host or cells: rat spleen
T3 sequence (P15823 1-515): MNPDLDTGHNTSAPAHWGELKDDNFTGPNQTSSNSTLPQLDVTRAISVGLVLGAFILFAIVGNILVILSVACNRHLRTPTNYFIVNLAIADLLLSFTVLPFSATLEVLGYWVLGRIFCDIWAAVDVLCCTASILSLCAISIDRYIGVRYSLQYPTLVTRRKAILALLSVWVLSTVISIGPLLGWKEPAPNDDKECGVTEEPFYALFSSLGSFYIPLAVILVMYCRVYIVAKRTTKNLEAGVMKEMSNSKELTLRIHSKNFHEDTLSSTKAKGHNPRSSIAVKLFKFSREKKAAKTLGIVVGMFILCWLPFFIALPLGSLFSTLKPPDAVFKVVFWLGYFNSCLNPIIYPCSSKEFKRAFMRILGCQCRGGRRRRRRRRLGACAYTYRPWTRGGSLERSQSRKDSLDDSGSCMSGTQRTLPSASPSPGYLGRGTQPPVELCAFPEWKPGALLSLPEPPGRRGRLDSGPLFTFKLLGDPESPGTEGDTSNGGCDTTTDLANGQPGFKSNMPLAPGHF
Excerpt: as §1, §2
(§3) The spleen was split longitudinally into two preparations per rat.

[5] = biological target: T2, α1D adrenoceptor subtype (rat aorta)
Excerpt: (§4) The interaction of an antagonist with a receptor can be characterized by an affinity constant, pA2. The affinity unit, pA2, can be defined as negative logarithm to base 10 of the molar concentration of antagonist drug that will reduce the effect of the reference agonist by 50%. […] The fractional increase in agonist concentration required to overcome the effects of the antagonist should be independent of the agonist concentration. Secondly, the affinity of the antagonist should be independent of concentration, therefore the Schild plot should have a slope of unity. Thirdly, the antagonist affinity should be independent of the agonist used.
(§5) The urethra was removed with the urinary bladder and immediately placed into Krebs Ringer bicarbonate solution with the following mM concentrations: 120 NaCl, 18.0 NaHCO3, 11.0 dextrose, 4.7 KCl, 2.5 CaCl2, 1.5 MgSO4, 1.2 KH2PO4 and equilibrated with 5% CO2:95% O2. The pH was adjusted to 7.2 at 25° C. by titrating with a saturated solution of NaHCO3. The pH increased to 7.4 at 37° C. Propranolol (0.004 mM) was included in all of the assays to block β-adrenoceptors. […] One end was fixed to a stationary glass rod and the other to a Grass FT03 transducer at a basal preload of 1.0 g of tension. Data was recorded on a Grass model-7 polygraph. Tissues were rinsed every 10 minutes for a total of 45-60 minutes. The urethra was primed once with 80 mM KCl, rinsed to basal tension and again with 10 μM phenylephrine (PE). After an additional 60 minute equilibration period a reference concentration response curve was generated for each tissue using PE as the reference agonist. A cumulative concentration protocol was employed. Following a 75 minute washout period a second response curve was then generated in the same fashion using the test agent. The amount of agent necessary to cause a 50% response (ED50) was calculated using “AGANTG” (Zielinski, P. J., Buckner, S. A. (1998). AGANTG: A Microsoft Excel 5.0-visual basic routine for the analysis of dose-response data. Analyst. 123, 1661-1668), a four parameter curve fitting program similar to “Allfit” (DeLean, A., Munson, P. J., Rodbard, D. (1980). Simultaneous analysis of families of sigmoidal curves: application to bioassay, radioligand assay, and physiological dose-response curves. Am. J. Physiol. 235, E97-102). Agonist potencies were indexed to PE and expressed as the negative logarithm (pD2). Each tissue was used for only one test agonist. For antagonists, the test agent was allowed a 30 minute exposure time before a second PE curve was started. The potency, expressed as a pA2, was calculated according to the method of Arunlakshana, O., Schild, H. O. (1959), Some quantitative uses of drug antagonists. […] The individual tissues were exposed to only one concentration of the test antagonist. The regression lines of the Schild plots were analyzed using least squares regression (Snedecor, G. W., Cochran, W. G., (1980). In Statistical methods, 7th edition, Iowa State University Press, Ames, Iowa).
(§6) Male Sprague Dawley rats (350-450 g) were sedated with CO2 and decapitated. The entire thoracic aorta was removed and immediately placed into Krebs Ringer bicarbonate solution as described above. The aorta was cleaned of extraneous tissue and the endothelium removed by passing a 100 mm length of PE-160 tubing through the lumen. The aorta was cut into 3-4 mm rings and mounted in 10 ml isolated tissue baths at 37° C.

[6] = biological target: T3, α1B adrenoceptor subtype (rat spleen); settings: for type of antagonism at α1B: based on slope and regression (r) of Schild plot; for α1B r (regression of Schild plot) / α1B slope (Schild plot): rat spleen
Excerpt: as §2, §3

[7] = biological target: T2, α1D adrenoceptor subtype (rat aorta); settings: for type of antagonism at α1D: based on slope and regression (r) of Schild plot; for α1D r (regression of Schild plot) / α1D slope (Schild plot): rat aorta
Excerpt: as §4, §5, §6

[8] = biological target: T4, α1A adrenoceptor (rat submaxillary gland) (Rattus norvegicus, UniProt P43140); assay: Radioligand binding, α1A (rat submaxillary gland), [3H]-prazosin
T4 construct: α1A (rat submaxillary gland); from tissue; host or cells: rat submaxillary gland
T4 sequence (P43140 1-466): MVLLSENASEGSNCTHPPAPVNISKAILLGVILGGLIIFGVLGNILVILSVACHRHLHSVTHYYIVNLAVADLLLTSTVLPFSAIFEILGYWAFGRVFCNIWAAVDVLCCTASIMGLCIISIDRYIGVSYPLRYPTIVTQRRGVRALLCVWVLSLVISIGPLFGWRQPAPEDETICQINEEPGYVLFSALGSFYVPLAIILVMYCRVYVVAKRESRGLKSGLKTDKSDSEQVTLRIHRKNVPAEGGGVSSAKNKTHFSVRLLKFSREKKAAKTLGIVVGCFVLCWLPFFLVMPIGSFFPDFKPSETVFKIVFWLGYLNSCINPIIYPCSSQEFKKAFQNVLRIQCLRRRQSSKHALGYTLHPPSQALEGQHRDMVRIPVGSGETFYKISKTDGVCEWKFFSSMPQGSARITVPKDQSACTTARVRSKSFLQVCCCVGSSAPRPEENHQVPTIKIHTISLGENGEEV

[9] = biological target: T5, α1b adrenoceptor (hamster receptor expressed in mouse fibroblasts) (Mesocricetus auratus, UniProt P18841); assay: Radioligand binding, α1b (hamster receptor expressed in mouse fibroblasts), [3H]-prazosin
T5 construct: expressed in transfected cells; host or cells: mouse fibroblasts
T5 sequence (P18841 1-515): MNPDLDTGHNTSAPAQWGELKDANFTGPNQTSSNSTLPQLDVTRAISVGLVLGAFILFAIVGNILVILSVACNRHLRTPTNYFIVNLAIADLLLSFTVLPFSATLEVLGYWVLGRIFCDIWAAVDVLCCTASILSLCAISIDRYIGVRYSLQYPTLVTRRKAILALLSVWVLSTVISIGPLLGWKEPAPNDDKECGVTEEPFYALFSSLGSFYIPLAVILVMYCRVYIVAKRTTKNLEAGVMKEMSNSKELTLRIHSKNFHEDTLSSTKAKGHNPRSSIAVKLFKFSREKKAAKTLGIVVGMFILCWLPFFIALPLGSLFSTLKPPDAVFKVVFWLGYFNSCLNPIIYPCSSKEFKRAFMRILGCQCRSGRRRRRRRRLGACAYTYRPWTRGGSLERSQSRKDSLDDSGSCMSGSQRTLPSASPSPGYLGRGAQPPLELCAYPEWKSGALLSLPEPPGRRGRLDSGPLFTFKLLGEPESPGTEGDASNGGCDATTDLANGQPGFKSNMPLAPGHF

[10] = biological target: T6, α1d adrenoceptor (rat receptor expressed in mouse fibroblasts) (Rattus norvegicus, UniProt P23944); assay: Radioligand binding, α1d (rat receptor expressed in mouse fibroblasts), [3H]-prazosin
T6 construct: expressed in transfected cells; host or cells: mouse fibroblasts
T6 sequence (P23944 1-561): T2 sequence (P23944 1-561)

[11] = i.v., anesthetized female Beagle dogs, mean ± S.E.M.
[12] = i.v., anesthetized female Beagle dogs, dose producing 20 mmHg increase in MAP, mean ± S.E.M.

Structure (SMILES): CS(=O)(=O)Nc1c(O)ccc2c1CCCC2C1=NCCN1 (centres unmarked) [Compound A-61603, reference compound]
- α1A efficacy [1]: 88%
- α1D efficacy [2]: 100%
- MAP ED20 mmHg ([3]; female, Beagle, dog, in vivo, iv): 0.27 ± 0.05 nmol/kg
- IUP ED5 mmHg [3, 11]: 0.16 ± 0.02 nmol/kg

Structure (SMILES): CCS(=O)(=O)Nc1cccc(Cc2c[nH]cn2)c1C [Compound A-286569]
- α1A efficacy [1]: 69%
- α1D pD2 ([2]; agonist potency): inactive
- α1B pD2 ([4]; agonist potency): inactive
- Selectivity ratio MAP ED20/IUP ED5 [3]: 5.6
- IUP ED5 mmHg [3, 11]: 41.9 ± 6.2 nmol/kg
- MAP ED20 mmHg [3, 12]: 201.6 ± 67 nmol/kg
- Kb [5]: 6.31 µM
- Kb [6]: 15.8 µM
- type of antagonism at α1B [6]: non-competitive antagonist
- α1B r (regression of Schild plot) [6]: 0.6
- α1B slope (Schild plot) [6]: 1.3
- type of antagonism at α1D [7]: non-competitive antagonist
- α1D r (regression of Schild plot) [7]: 0.5
- α1D slope (Schild plot) [7]: 1.1

Structure (SMILES): CCS(=O)(=O)Nc1cccc(Cc2c[nH]cn2)c1 [Compound A-286666]
- α1A efficacy [1]: 80%
- α1D pD2 ([2]; agonist potency): inactive
- α1B pD2 ([4]; agonist potency): inactive
- Kb [5]: 0.316 µM
- Kb [6]: 1.58 µM
- type of antagonism at α1B [6]: competitive antagonist
- α1B r (regression of Schild plot) [6]: 0.9
- α1B slope (Schild plot) [6]: 0.81
- type of antagonism at α1D [7]: competitive antagonist
- α1D r (regression of Schild plot) [7]: 0.9
- α1D slope (Schild plot) [7]: 0.93

Structure (SMILES): C[C@@H](N)[C@H](O)c1ccccc1 [PPA, phenylpropanolamine]
- EC50 ([1]; agonist potency, negative log of EC50, read-out: α1A pD2 (converted)): 200 µM
- α1A efficacy [1]: 68%
- EC50 ([2]; agonist potency, read-out: α1D pD2 (converted)): 63.1 µM
- α1D efficacy [2]: 91%
- pKi [8]: < 5.00
- pKi [9]: < 5.00
- EC50 ([4]; agonist potency, read-out: α1B pD2 (converted)): 251 µM
- α1B efficacy ([4]; percent of phenylephrine (100%) contraction): 34%
- Selectivity ratio MAP ED20/IUP ED5 [3]: 0.4
- IUP ED5 mmHg [3, 11]: 1092 ± 384 nmol/kg
- MAP ED20 mmHg [3, 12]: 331 ± 80 nmol/kg
- pKi [10]: < 5.00
